From ChEMBL document CHEMBL1201862, “PubChem BioAssay data set” (2004)
The source made the active and inactive calls.

Experiments:
[1] = Trypanosoma cruzi growth suppression in host cells – NIH3T3 host cells, beta-gal luminescence, confirmation (AID 2044); type: functional, cell-based;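 note: intracellular parasites grown in NIH/3T3 mouse fibroblasts as host cells; luminescent beta-galactosidase reporter signal from transgenic T. cruzi replicating inside host cells; inhibitors lower the luminescence signal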
HEK293 [2] = experiment: inhibition of NOD1-driven NF-kB reporter – cell-based, luminescence, uHTS, primary screen (AID 1578); type: functional; conditions: Homo sapiens
[3] = NIH3T3 cell viability loss – ATP luminescence, mouse fibroblasts, counter-screen, dose response (AID 2010); type: functional, cell-based;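 note: cells exposed to compound for about 90 hours before reading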
[4] = target: Nucleotide-binding oligomerization domain-containing protein 2 (Homo sapiens, UniProt Q9HC29); experiment: inhibition of NOD2-driven NF-kB reporter – cell-based, luminescence, uHTS, HEK293 (AID 1566); type: functional
Chain of Nucleotide-binding oligomerization domain-containing protein 2 (Q9HC29 whole entry, the tested form may be a part): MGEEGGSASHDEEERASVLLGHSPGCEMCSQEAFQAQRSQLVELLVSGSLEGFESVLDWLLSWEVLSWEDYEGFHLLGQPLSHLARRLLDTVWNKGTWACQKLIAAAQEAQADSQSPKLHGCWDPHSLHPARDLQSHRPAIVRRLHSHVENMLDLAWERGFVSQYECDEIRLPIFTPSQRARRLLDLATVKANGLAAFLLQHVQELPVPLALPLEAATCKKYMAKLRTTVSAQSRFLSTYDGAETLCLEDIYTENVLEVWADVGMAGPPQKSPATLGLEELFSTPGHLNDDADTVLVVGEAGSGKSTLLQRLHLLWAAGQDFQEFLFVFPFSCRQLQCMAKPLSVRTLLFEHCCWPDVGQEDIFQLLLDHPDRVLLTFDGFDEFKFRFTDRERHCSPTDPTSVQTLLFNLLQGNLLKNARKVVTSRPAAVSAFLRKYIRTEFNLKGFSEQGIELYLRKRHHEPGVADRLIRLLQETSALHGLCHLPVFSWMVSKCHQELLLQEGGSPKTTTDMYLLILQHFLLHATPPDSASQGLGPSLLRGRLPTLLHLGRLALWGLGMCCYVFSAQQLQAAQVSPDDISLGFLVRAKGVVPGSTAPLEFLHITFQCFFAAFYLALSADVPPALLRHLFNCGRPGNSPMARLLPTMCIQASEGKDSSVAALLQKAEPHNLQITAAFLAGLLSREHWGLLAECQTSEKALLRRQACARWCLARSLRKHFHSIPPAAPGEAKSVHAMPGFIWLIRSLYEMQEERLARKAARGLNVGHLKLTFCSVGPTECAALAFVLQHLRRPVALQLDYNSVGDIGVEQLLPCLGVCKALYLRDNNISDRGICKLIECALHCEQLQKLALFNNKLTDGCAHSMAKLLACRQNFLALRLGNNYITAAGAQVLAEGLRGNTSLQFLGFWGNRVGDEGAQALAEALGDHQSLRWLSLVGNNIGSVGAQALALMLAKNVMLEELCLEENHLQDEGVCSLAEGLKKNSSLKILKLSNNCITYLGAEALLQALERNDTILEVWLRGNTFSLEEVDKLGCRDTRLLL

HEK293 [5] = experiment: cells; type: functional, cell-based; conditions: Homo sapiens
HEK293 [6] = experiment: NOD2 signaling inhibitors in MDP-stimulated cells, cell-based, uHTS, luminescence (AID 2001); type: functional; conditions: Homo sapiens
HEK293 [7] = experiment: cells; type: functional, cell-based; conditions: Homo sapiens; remark: listed apart in the source
HEK293 [8] = experiment: cells; type: functional, cell-based; conditions: Homo sapiens; remark: listed apart in the source
[9] = OVCAR8 cell viability loss – plate reader, dry powder samples, PAX8 project, dose response (AID 743197); type: functional, cell-based; conditions: OVCAR-8
Paired box protein Pax-8 = Paired box protein Pax-8 (Homo sapiens, UniProt Q06710); experiment: PAX8 transcriptional activity inhibition in RMG-I – RMG-I cells, luciferase, cherry-pick, dose response (AID 687027); type: functional, cell-based;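 note: luciferase reporter driven by Pax8 target thyroperoxidase promoter measured by SteadyGlo luminescence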
Chain of Paired box protein Pax-8 (Q06710 whole entry, the tested form may be a part): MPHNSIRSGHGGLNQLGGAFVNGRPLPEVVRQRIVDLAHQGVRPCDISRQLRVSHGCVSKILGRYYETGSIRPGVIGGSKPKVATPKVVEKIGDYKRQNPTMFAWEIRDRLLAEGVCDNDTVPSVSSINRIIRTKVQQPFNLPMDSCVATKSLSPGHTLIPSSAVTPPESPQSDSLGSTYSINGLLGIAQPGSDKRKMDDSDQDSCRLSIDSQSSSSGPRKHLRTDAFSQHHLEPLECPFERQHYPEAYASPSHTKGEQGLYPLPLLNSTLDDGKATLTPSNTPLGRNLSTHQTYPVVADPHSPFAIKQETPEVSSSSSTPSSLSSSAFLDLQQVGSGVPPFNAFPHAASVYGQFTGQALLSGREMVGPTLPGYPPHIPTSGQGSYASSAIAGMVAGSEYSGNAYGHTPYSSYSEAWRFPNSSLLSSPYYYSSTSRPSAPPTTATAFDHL

[10] = off-target signal loss in HeLa-CEM21 co-culture – HeLa F-luc CTL cells, cherry-picked, counter-screen for HIV-1 Env fusion inhibitor project, dose response (AID 652040); type: functional, cell-based;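 note: potency for signal decrease marking cytotoxic or nonspecific inhibition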
[11] = blockers of HIV-1 envelope-mediated cell-cell fusion – cherry-pick, dose response (AID 652057); type: functional, cell-based
[12] = blockers of HIV-1 ZM109 envelope-driven cell-cell fusion – HeLa effector, CEM target cells, luciferase, cherry-pick, dose response (AID 652058); type: functional, cell-based;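 note: luciferase signal from HIV-1 Env mediated cell-cell fusion of effector and target cells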
[13] = HIV-1 AD8 envelope cell-cell fusion blockers – cherry-pick, dose response (AID 652062); type: functional, cell-based;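 note: luciferase signal from cell-cell fusion driven by HIV-1 clade B AD8 Env; potency is for inhibitors of fusion seen as a drop in luminescence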
Estrogen receptor beta [14] = target: T1, Estrogen receptor beta (Homo sapiens, UniProt Q92731);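 note: recombinant ER-beta bound to coactivator SRC1 peptide in presence of estradiol agonist; inhibitors block coactivator peptide binding and lower the FRET signal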
T1 sequence (Q92731 whole entry): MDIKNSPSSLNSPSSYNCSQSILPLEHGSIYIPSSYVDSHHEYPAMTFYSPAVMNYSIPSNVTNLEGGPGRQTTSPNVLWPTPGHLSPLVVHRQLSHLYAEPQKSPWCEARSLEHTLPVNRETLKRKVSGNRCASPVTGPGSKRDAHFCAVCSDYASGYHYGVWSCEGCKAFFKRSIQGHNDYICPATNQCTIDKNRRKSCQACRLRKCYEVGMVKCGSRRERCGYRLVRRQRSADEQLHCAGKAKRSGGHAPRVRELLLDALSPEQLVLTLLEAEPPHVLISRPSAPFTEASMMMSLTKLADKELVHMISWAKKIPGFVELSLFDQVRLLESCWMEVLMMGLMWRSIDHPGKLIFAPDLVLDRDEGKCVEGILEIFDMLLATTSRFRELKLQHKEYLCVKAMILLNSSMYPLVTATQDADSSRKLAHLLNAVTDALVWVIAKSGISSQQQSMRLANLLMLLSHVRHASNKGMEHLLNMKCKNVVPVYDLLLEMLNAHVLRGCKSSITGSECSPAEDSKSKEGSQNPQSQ

Estrogen receptor beta [15] = target: T1, Estrogen receptor beta; experiment: blockers of SRC-3 recruitment to ERβ – biochemical, ELISA, streptavidin-HRP readout, orthogonal assay, confirmation (AID 1060)
[16] = target: T2, Ubiquitin-conjugating enzyme E2 N (Homo sapiens, UniProt P61088); type: functional;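 note: Dose-response confirmation in a TR-FRET assay detecting UBC13-driven polyubiquitin chain formation, inhibition measured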
T2 sequence (P61088 whole entry): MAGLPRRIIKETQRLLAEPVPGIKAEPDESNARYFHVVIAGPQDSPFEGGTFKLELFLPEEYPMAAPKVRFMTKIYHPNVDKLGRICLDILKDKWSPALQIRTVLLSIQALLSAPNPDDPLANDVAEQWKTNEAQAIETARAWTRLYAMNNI

X-box-binding protein 1 = target: T3, X-box-binding protein 1 (Homo sapiens, UniProt P17861); type: functional, Cricetulus griseus;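 note: confirmatory dose-response counter-screen serving a CHOP assay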
T3 sequence (P17861 whole entry): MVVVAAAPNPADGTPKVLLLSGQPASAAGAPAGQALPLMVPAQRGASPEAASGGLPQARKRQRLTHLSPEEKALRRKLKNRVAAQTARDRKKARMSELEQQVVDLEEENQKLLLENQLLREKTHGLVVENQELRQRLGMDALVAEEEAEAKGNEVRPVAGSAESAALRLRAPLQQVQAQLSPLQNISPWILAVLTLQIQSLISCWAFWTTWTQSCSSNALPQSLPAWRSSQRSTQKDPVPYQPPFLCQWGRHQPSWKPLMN

[17] = test system: Streptococcus sp. 'group A'; experiment: Streptococcus pyogenes SK(-)GAS viability under kanamycin – luminescence, BacTiterGlo, confirmation, counter-screen for streptokinase expression inhibitor project, dose response (AID 1900); type: functional, organism-based
Streptococcus = experiment: GAS UMAA2166 growth inhibition – luminescence, BacTiterGlo, counter-screen for streptokinase expression inhibitor project, dose response (AID 1915); type: functional, organism-based;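 note: potency for reduction of bacterial viability or growth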
Streptokinase A = target: T4, Streptokinase A (Streptococcus pyogenes serotype M1, UniProt P10520); experiment: viability-normalized secreted streptokinase activity reduction – plasminogen activation absorbance, OD405, dose response (AID 1914); type: functional, Streptococcus pyogenes M1 GAS;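 note: secreted streptokinase activity via plasminogen activation per viability signal from cell pellet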
T4 sequence (P10520 whole entry): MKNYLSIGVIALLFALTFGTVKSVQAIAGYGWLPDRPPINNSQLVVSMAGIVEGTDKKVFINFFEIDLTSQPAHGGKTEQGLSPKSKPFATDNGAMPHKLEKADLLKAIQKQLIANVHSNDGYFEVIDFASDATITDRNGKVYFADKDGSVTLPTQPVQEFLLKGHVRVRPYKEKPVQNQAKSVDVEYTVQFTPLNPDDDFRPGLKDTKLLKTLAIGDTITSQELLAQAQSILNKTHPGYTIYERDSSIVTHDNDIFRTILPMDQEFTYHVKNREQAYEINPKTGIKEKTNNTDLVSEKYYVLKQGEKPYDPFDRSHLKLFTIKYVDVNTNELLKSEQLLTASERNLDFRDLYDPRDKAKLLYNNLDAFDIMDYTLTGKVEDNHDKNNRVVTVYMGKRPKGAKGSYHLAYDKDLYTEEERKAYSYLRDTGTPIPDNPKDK

[18] = target: Voltage-dependent T-type calcium channel subunit alpha-1H (Homo sapiens, UniProt O95180); type: functional;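 note: channel activity triggered by adding a high calcium stimulation buffer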
Chain of Voltage-dependent T-type calcium channel subunit alpha-1H (O95180 whole entry): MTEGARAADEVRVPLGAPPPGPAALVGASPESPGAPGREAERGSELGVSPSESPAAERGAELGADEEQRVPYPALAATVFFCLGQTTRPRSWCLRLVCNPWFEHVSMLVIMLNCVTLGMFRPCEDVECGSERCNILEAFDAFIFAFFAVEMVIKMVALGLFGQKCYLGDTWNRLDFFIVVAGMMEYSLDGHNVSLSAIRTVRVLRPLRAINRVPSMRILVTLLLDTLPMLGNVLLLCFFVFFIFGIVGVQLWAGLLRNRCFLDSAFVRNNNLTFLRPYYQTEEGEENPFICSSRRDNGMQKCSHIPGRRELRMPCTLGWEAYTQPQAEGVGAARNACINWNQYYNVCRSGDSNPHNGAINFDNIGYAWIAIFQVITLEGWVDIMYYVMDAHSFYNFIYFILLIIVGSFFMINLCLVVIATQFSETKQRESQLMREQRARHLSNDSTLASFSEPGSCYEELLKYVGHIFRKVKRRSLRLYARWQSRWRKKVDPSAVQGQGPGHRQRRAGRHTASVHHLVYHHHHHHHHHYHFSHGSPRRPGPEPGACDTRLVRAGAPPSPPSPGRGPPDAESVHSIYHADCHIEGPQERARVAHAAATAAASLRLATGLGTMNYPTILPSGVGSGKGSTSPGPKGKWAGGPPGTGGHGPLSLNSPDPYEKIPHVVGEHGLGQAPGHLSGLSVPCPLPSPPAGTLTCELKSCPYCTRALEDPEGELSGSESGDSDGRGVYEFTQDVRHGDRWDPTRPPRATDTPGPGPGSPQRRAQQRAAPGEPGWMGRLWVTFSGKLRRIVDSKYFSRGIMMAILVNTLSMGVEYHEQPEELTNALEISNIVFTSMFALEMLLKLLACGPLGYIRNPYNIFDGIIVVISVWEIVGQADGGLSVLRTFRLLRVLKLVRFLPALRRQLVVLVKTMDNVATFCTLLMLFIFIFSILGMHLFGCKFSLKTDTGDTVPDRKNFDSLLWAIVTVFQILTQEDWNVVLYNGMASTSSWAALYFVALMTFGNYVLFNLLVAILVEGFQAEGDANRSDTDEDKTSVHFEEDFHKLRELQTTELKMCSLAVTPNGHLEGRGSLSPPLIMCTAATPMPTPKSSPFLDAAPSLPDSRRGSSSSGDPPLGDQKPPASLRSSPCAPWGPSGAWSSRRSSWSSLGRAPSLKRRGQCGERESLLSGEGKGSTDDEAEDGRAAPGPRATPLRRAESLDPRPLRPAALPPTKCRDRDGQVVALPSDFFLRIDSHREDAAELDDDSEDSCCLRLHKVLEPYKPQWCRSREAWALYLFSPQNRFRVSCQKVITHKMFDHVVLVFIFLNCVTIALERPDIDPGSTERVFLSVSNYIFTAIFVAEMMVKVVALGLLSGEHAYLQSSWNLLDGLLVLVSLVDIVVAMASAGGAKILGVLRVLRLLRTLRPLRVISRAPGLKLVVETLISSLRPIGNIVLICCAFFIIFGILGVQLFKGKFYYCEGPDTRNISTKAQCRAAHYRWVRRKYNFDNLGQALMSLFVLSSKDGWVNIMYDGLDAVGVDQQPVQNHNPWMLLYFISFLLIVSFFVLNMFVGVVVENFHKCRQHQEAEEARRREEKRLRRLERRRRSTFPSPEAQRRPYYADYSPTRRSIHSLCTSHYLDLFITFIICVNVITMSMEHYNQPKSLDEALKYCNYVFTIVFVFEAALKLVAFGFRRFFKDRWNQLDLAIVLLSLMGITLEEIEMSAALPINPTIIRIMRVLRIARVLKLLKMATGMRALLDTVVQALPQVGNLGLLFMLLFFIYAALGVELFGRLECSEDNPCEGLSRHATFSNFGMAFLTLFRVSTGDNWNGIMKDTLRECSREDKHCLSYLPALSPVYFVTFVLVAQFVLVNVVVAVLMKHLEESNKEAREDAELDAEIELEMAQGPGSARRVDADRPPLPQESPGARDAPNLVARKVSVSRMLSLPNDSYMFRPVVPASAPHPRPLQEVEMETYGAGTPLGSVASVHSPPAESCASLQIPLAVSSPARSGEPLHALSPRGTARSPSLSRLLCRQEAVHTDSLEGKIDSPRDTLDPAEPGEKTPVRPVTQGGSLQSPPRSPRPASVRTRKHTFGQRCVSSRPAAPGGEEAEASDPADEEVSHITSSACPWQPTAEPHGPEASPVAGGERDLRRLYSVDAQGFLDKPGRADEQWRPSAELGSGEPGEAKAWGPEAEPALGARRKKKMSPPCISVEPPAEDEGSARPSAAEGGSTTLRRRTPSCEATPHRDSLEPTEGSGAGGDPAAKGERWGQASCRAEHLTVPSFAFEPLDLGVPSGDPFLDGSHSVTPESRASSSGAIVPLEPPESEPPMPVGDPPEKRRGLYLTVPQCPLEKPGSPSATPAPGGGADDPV

[19] = Luminescence Cell-Based Dose Retest to Confirm Inhibitors of Cancer Stem Cells. [Related pubchem assays (depositor defined):AID2717, AID2721]; type: functional; conditions: Homo sapiens
BJ [20] = experiment: BJ-TERT-LT-ST fibroblast viability loss – cell-based, RAS-independent, luminescence, dose response (AID 1935); type: functional; conditions: Homo sapiens;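 note: BJ fibroblasts immortalized with TERT plus LT and ST oncogenes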
BJ [21] = experiment: growth inhibition of engineered Ras-driven BJ cells – cell-based, alamar blue fluorescence, cherrypicked samples, dose response (AID 2631); type: functional; conditions: Homo sapiens;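 note: confirmatory dose-response assay in RAS-dependent BJ fibroblasts engineered with TERT, LT and ST, with cytotoxicity read by fluorescence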
[22] = DRD fibroblast viability loss – cell-based, non-viral oncogenic, luminescence, dose response (AID 1934); type: functional; conditions: Homo sapiens
BJ [23] = experiment: cells; type: functional, cell-based; conditions: Homo sapiens
BJ [24] = experiment: BJ-TERT fibroblast viability loss – cell-based, RAS-independent, luminescence, dose response (AID 1933); type: functional; conditions: Homo sapiens
[25] = alpha-synuclein stem-loop luciferase translation blockers – H4 neuroglioma cells, luminescence, confirmation (AID 1988); type: functional, cell-based
INS1 = experiment: INS-1E survival protection against cytokine death – cell-based, luminescence, retest, dose response (AID 449756); type: functional; conditions: Rattus norvegicus;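 note: cell death triggered by IL-1 beta plus TNF-alpha plus IFN-gamma mixture; protective hits raise ATP signal compared with cytokine alone wells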
[26] = loss of viability in HepG2 cells – cell-based, CellTiter-Glo, cherry-picked, cytotoxicity control for Shn3 inhibitor project, dose response (AID 624134); type: functional
Nonstructural protein 1 = Nonstructural protein 1 (Influenza A virus, UniProt Q194T2); type: functional, Influenza A virus (A/California/07/2009(H1N1))
Chain of Nonstructural protein 1 (Q194T2 whole entry): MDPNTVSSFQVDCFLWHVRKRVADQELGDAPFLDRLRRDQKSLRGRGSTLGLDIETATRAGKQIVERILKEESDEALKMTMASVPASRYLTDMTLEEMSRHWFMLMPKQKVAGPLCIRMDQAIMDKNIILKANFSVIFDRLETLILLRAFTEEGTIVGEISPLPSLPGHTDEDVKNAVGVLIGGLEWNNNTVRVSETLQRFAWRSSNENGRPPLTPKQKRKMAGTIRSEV

[27] = target: Heat shock protein HSP 90-alpha (Homo sapiens, UniProt P07900); type: functional, organism-based
[28] = luciferase reporter signal suppression in cells – H4 neuroglioma cells, luminescence, dose response (AID 1990); type: functional, cell-based
[29] = non-specific 3'UTR reporter inhibition in Clone20-Shn3RL – cell-based, Renilla luciferase, cherry-picked, counter-screen for Shn3 inhibitor project, dose response (AID 624133); type: functional
[30] = reduction of Shn3 3'UTR-driven luciferase in osteoblasts – cell-based, Clone20 osteoblasts, firefly luciferase, cherry-picked, dose response (AID 624132); type: functional;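 note: firefly luciferase luminescence from reporter carrying the Shn3 3'UTR in osteoblasts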
[31] = Luminescence Cell-Based Dose Response HTS to Identify Inhibitors of 5'UTR Stem-Loop Driven Prion Protein mRNA Translation in H4 Neuroglioblastoma Cells. [Related pubchem assays: 1827 (Project Summary), 1813 (Primary HTS)]; type: functional
H4 = experiment: Luminescence Cell-Based Dose Response HTS to Identify Activators of 5'UTR Stem-Loop Driven Prion Protein mRNA Translation in H4 Neuroglioblastoma Cells. [Related pubchem assays: 1829 (Project Summary), 1814 (Primary HTS)]; type: functional; conditions: Homo sapiens
P388/ADR = experiment: cells; type: functional; conditions: Mus musculus
P388 = experiment: cells; type: functional; conditions: Mus musculus
SN12K1 = experiment: cells; type: functional; conditions: Homo sapiens

O=C(Cc1ccc(Br)cc1)Nc1ncc([N+](=O)[O-])s1
EC50 [1]: 0.553 µM (active) | EC50 (HEK293 [2]): 3.15 µM (active) | EC50 [3]: > 60 µM (not active) | EC50 [4]: > 20 µM (inactive) | IC50 (HEK293 [5]): > 20 µM (inactive) | IC50 (HEK293 [6]): 7.9 µM (inactive) | IC50 (HEK293 [7]): > 20 µM (inactive) | IC50 (HEK293 [8]): 6.55 µM (active)

C[C@@H]1CCCCO[C@@H](CN(C)C(=O)Nc2ccc(C(F)(F)F)cc2)[C@H](C)CN([C@H](C)CO)C(=O)c2cc(NS(=O)(=O)c3ccccc3)ccc2O1
AC50 [9]: > 70 µM (inactive) | AC50 (Paired box protein Pax-8): 6.96 µM (active)

C=C1CCN([C@@H](Cc2ccccc2)C(=O)NCCC(C)C)S(=O)(=O)c2ccccc21
AC50 [10]: 6.85 µM (active) | AC50 [11]: 3.91 µM (active) | AC50 [12]: 3.56 µM (active) | AC50 [13]: 24.1 µM (active)

Cc1ccc(Cc2cncc(O)c2)cc1S(=O)(=O)O
IC50 (Estrogen receptor beta [14]): 13.5 µM (active) | IC50 (Estrogen receptor beta [15]): 0.353 µM (not active)

O=C(Nc1ccc2c(c1)OCO2)c1cccc2c1C(=O)N(Cc1cccnc1)C2
IC50 (Estrogen receptor beta [14]): > 50 µM (not active) | IC50 (Estrogen receptor beta [15]): 3.13 µM (not active)

O=C(COc1ccc(Cl)cc1)Nc1nc(-c2ccc(S(=O)(=O)N3CCOCC3)cc2)cs1
EC50 (HEK293 [2]): 10.3 µM (active) | EC50 [4]: 17 µM (active) | IC50 (HEK293 [5]): > 20 µM (inactive) | IC50 (HEK293 [6]): 4.96 µM (active) | IC50 (HEK293 [7]): > 20 µM (inactive) | IC50 (HEK293 [8]): 3.9 µM (active)

O=C(CCN1C(=O)/C(=C/c2ccccc2Cl)SC1=S)NCCCN1CCOCC1
IC50 [16]: > 20 µM (inactive)

Cc1ccc(-c2nc3cc(NS(=O)(=O)c4ccc(C)cc4)ccc3o2)cc1
Absolute IC50 (XBP1) (X-box-binding protein 1): 10 µM | EC50 [17]: 5.82 µM (active) | EC50 (Streptococcus): 18.1 µM (active) | EC50 (Streptokinase A): 5.86 µM (active)

CCOc1ccc(C(=O)C(C)OC(=O)c2nc(Cl)ccc2Cl)cc1 (configuration not stated)
IC50 [16]: > 20 µM (inactive)

Cc1ccc(-c2nnc(N3CCN(C(=O)COc4ccccc4)CC3)c3ccccc23)cc1
AC50 [11]: 31.6 µM (active) | AC50 [12]: 13.9 µM (active) | EC50 [18]: 4.54 µM (active) | AC50 [13]: 34.9 µM (active)

CC1CCCC(C)N1CCCNC(=O)C1CCCN(c2ncnc3c2nc2n3CCCCC2)C1 (configuration not stated)
IC50 [16]: > 20 µM (inactive)

Cn1cnc(Sc2[nH]cnc3ncnc2-3)c1[N+](=O)[O-]
AC50 [19]: 1.42 µM (active) | EC50 (BJ [20]): > 150 µM (not active) | EC50 (BJ [21]): > 133 µM (inactive) | EC50 [22]: 13 µM (active) | EC50 (BJ [23]): 8.4 µM (active) | EC50 (BJ [24]): > 150 µM (not active)

Cc1ccc(-n2c(O)nc3c(C(N)=O)nc(-c4ccc(C)o4)nc32)cc1
Absolute IC50 (XBP1) (X-box-binding protein 1): 10 µM

O=C(/C=C/c1ccc(F)cc1)NC(=S)NNC(=O)c1cnccn1
EC50 [25]: > 120 µM (not active) | AC50 (INS1): 1.21 µM (active) | AC50 [26]: > 70 µM (inactive) | IC50 (Nonstructural protein 1): 1.56 µM (active) | EC50 [17]: 1.37 µM (active) | EC50 (Streptococcus): 2.75 µM (active) | AC50 [27]: 3.35 µM (active) | EC50 [28]: 11.7 µM (active) | AC50 [29]: 2.01 µM (active) | AC50 [30]: 1.39 µM (active) | EC50 [31]: 10.5 µM (active)

CCC1CCc2c(sc(NC(=O)c3ccoc3C)c2C(N)=O)C1 (configuration not stated)
Absolute IC50 (XBP1) (X-box-binding protein 1): 10 µM

N#C/C(=C\c1cccc(Oc2ccccc2)c1)C(=O)N1CCOCC1
AC50 [27]: 8.82 µM (active)

CC1(C)CC(=O)c2c(nc(SCC(=O)Nc3nsc(-c4ccccc4)n3)c(C#N)c2-c2ccccc2)C1
EC50 [25]: 13.4 µM (active) | EC50 (BJ [20]): > 150 µM (not active) | EC50 [28]: > 120 µM (not active) | EC50 (BJ [21]): 0.596 µM (active) | AC50 [30]: > 70 µM (inactive) | EC50 [22]: 35 µM (active) | EC50 (BJ [23]): 7.76 µM (active) | EC50 (BJ [24]): > 150 µM (not active) | EC50 [31]: > 120 µM (not active)

Nc1ncn([C@H]2C[C@H](O)[C@@H](CO)O2)c(=O)n1 [DECITABINE]
EC50 (H4): 94.9 µM (active) | AC50 [10]: > 70 µM (inactive) | GI50 (P388/ADR): 0.0959 µM (active) | GI50 (P388): 0.051 µM (active) | GI50 (SN12K1): > 375 µM (inactive)

COc1ccc(NC(=O)CN(c2ccccc2)S(=O)(=O)N(C)C)cc1OC
IC50 (Estrogen receptor beta [14]): 10.1 µM (active) | IC50 (Estrogen receptor beta [15]): > 109 µM (not active)

CC(C)CN(C(=O)c1ccc(S(=O)(=O)N2CCCCC2)cc1)C1CCS(=O)(=O)C1 (configuration not stated)
AC50 [12]: 6.21 µM (active)
